Reference: US11730725B2 (Tesaro, Inc., priority 2017, dated 2023)
Like-named read-outs stand apart in the source and are kept apart here.

What was measured:
[1] = drug substance, crystalline solid
tumor models [2] = test: animal or person; details: read-out: PARP inhibition
tumor models [3] = system: tumor models
[4] = system: platinum-sensitive recurrent epithelial ovarian, fallopian tube, or primary peritoneal cancer; details: niraparib vs placebo
Excerpt: All patients had received at least two prior platinum-containing regimens and were in response (complete or partial) to their most recent platinum-based regimen. Eligible patients were assigned to one of two cohorts based on the results of a germline BRCA mutation test. […] Randomization occurred within 8 weeks of the last dose of the most recent platinum-containing regimen. […] Clinic visits occurred each cycle (4 weeks±3 days). […] Prior to unblinding of the study, tumors of patients randomized to the non-gBRCAmut cohort were tested for the presence of homologous recombination deficiency (HRD) using the Myriad myChoice® HRD test, which evaluates three independent biomarkers of tumor genome instability: loss of heterozygosity, telomeric allelic imbalance, and large-scale state transitions. Tumors with homologous recombination deficiencies and those with somatic BRCA mutations were defined as HRD positive (HRDpos). The primary efficacy analysis for PFS was prospectively defined and assessed for the gBRCAmut cohort. The primary efficacy analysis for PFS was prospectively defined and assessed for the non-gBRCAmut cohort with a hierarchical testing schema. In the first step, PFS was assessed in the group of patients with HRDpos tumors and if significant, PFS was assessed in the overall non-gBRCAmut cohort. Secondary efficacy endpoints included chemotherapy-free interval (CFI), time to first subsequent therapy (TFST), PFS after the first subsequent therapy (PFS2), time to second subsequent therapy (TSST) and OS (overall survival).

Row | SMILES | hygroscopicity [1] | inhibition at 50 mg/kg (tumor models [2]) [%] | tumor regression (tumor models [3]; 50 mg/kg, daily dosing) | tumor regression (tumor models [3]; dose of 75 mg/kg, same model) | tumor regression (tumor models [3]; dosing switched from 75 mg/kg to 50 mg/kg) | CFI HR ([4]; gBRCAmut cohort) | TFST HR ([4]; gBRCAmut cohort) | CFI HR ([4]; non-gBRCAmut cohort) | TFST HR ([4]; non-gBRCAmut cohort)
1 | Cc1ccc(S(=O)(=O)O)cc1.NC(=O)c1cccc2cn(-c3ccc([C@@H]4CCCNC4)cc3)nc12 [Niraparib tosylate monohydrate, 2-{4-[(3S)-piperidin-3-yl]phenyl}-2H-indazole 7-carboxamide 4-methylbenzenesulfonate hydrate (1:1:1)] | non-hygroscopic | – | – | – | – | – | – | – | –
2 | NC(=O)c1cccc2cn(-c3ccc([C@@H]4CCCNC4)cc3)nc12 [Niraparib] | – | > 90 | tumor regression | did not result in tumor regression | tumor regression was achieved | 0.26 | 0.31 | 0.50 | 0.55
